# Assay results taken from paper PMC10120551, “Novel Glu-based pyrazolo[3,4-d]pyrimidine analogues: design, synthesis and biological evaluation as DHFR and TS dual inhibitors” (Journal of Enzyme Inhibition and Medicinal Chemistry, 2023).
# How the values were obtained:
# [1] = system: HCC-2998; conditions: HCC-2998, Colon cancer; five-dose 0.01–100 µM
# [2] = system: T-47D; conditions: Breast cancer, five-dose 0.01–100 µM
# [3] = system: SK-MEL-2; assay: cells; conditions: Homo sapiens
# [4] = system: SNB-75; conditions: SNB-75, CNS cancer; five-dose 0.01–100 µM
# [5] = system: OVCAR-5; conditions: OVCAR-5, Ovarian cancer; five-dose 0.01–100 µM
# [6] = system: HCT-15; assay: cells; conditions: Homo sapiens
# [7] = system: RPMI-8226; assay: cells; conditions: Homo sapiens
# [8] = system: MALME-3M; assay: cells; conditions: Homo sapiens
# [9] = system: SW-620; assay: cells; conditions: Homo sapiens
# [10] = system: BT-549; assay: cells; conditions: Homo sapiens
# [11] = system: 786-0; assay: cells; conditions: Homo sapiens
# [12] = system: A498; conditions: A498, Renal cancer; five-dose 0.01–100 µM
# [13] = system: IGROV1; assay: cells; conditions: Homo sapiens
# [14] = system: OVCAR-3; assay: cells; conditions: Homo sapiens
# [15] = system: SK-MEL-28; assay: cells; conditions: Homo sapiens
# [16] = system: NCI-H460; assay: cells; conditions: Homo sapiens
# [17] = system: HT29; assay: cells; conditions: Homo sapiens
# [18] = system: SF-268; conditions: SF-268, CNS cancer; five-dose 0.01–100 µM
# [19] = system: MCF-7 cells; assay: Apoptosis analysis (annexin-V/PI, flow cytometry); assay type: cell-based, human; conditions: MCF-7, 10 µM, 24 h; DMSO control 0.29%
# Protocol: Figure 5. Flow cytometric analyses: cell cycle distribution analysis using PI staining method in which MCF-7 cells were treated by 6i (10 µM) and DMSO (negative control; NC) for 48 h; (A) 6i, (B) DMSO, (C) cells percentage in different phases (G0-G1, S, G2/M); apoptotic induction using annexin-V-FITC/PI staining method in which cancer cells were treated by 6i (10 µM) and DMSO (negative control; NC) for 24 h; (D) 6i, (E) DMSO, (F) histogram for induction of apoptosis.
# Again, MCF-7 cells were treated with 6i (10 µM) to assess its effect on cell apoptosis. As shown in Figure 5(D,E), the fraction of cells in early apoptosis were 26.27% and 0.43%, while in late apoptosis, they were 8.90% and 0.29% for compound 6i and DMSO control, respectively. The obtained results hinted that compound 6i could induce apoptotic pathways. However, the ratio of apoptosis inferred that the anti-proliferative effect of compound 6i was largely dependent on apoptosis.
# The MCF-7 cells (10^6 cells/ml) were treated with either 10 µM of 6i or DMSO (NC) for 24 h. After that, the cells were trypsinised, collected, washed, and stained with PE-Annexin-V (BioVision, K101-25) in the presence of PI[67]. The induction of apoptosis was analysed by flow cytometry using BD FACS Calibur[67].
# [20] = system: COLO 205; assay: cells; conditions: Homo sapiens
smiles,measurement,setting,value
CCOC(=O)CC[C@H](NC(=O)c1ccc(NC(=O)Cn2cnc3c(c(C)nn3-c3ccc(Br)cc3)c2=O)cc1)C(=O)OCC [Compound 6i],TGI,[1],>100 µM
same,TGI,[2],>100 µM
same,GI50,[3]; SK-MEL-2,27.6 µM
same,CC50,"[3]; SK-MEL-2, read-out: LC50",> 100 µM
same,TGI,[4],40.9 µM
same,TGI,[5],56.3 µM
same,GI50,[6]; HCT-15,26 µM
same,CC50,"[6]; HCT-15, read-out: LC50",> 100 µM
same,GI50,[7]; RPMI-8226,22.7 µM
same,CC50,"[7]; RPMI-8226, read-out: LC50",> 100 µM
same,GI50,[8],15 µM
same,CC50,[8]; read-out: LC50,59.4 µM
same,GI50,[9]; SW-620,8.98 µM
same,CC50,"[9]; SW-620, read-out: LC50",> 100 µM
same,GI50,[10]; BT-549,4.54 µM
same,CC50,"[10]; BT-549, read-out: LC50",> 100 µM
same,GI50,[11]; 786-0,8.66 µM
same,CC50,"[11]; 786-0, read-out: LC50",> 100 µM
same,TGI,[12],48.1 µM
same,GI50,[13]; IGROV-1,23.9 µM
same,CC50,"[13]; IGROV-1, read-out: LC50",> 100 µM
same,GI50,[14]; OVCAR-3,11.7 µM
same,CC50,"[14]; OVCAR-3, read-out: LC50",> 100 µM
same,GI50,[15]; SK-MEL-28,10.1 µM
same,CC50,"[15]; SK-MEL-28, read-out: LC50",50.2 µM
same,GI50,[16]; NCI-H460,13.7 µM
same,CC50,"[16]; NCI-H460, read-out: LC50",86.9 µM
same,GI50,[17]; HT-29,18.4 µM
same,CC50,"[17]; HT-29, read-out: LC50",> 100 µM
same,TGI,[18],32.8 µM
same,fraction of cells in late apoptosis,[19],8.90%
same,GI50,[20]; COLO 205,14 µM
same,CC50,"[20]; COLO 205, read-out: LC50",96 µM
